In brackets after ≈: the same amount, converted by molar mass. Read-outs that look alike come from different tables or passages of the source.
Experiments:
[1] = parameters: species or system guinea pigs (Slc:Hertley); conditions: male, Slc:Hertley, guinea pig, in vivo
Description: Guinea pig maximization test (GPMT) which is a widely accepted model for delayed antigenicity was conducted according to the method of Mugnusson et al. (J. invest. Dermatol., 52, 1969) by using a cutaneous sensitization concentration of 1% and a patch sensitization and induction concentration of 10%. At day 1, the animal was sensitized by cutaneously administering the test substance (the quinolone compounds and the control: vehicle, vaseline) (1% solution in physiological saline+FCA emulsion) at the back of the head of the shaved guinea pigs (7 week old male Slc:Hertley). At day 7, lauryl sodium sulfate (SLC) was applied for stimulus (adjuvant treatment), and on the next day, the test substance coated on a wax paper was patched onto the shaved skin to for sealed sensitization, and after 48 hours (at day 10), the waxed paper was removed. The skin reaction was observed upon the removal. On day 22, the test substance (10%) was patched onto the anterior side of the body for induction, and the induction patching was removed after 24 hours. On the next day (at day 24) and the next day (at day 25), the skin reaction was evaluated according to the description of the document as mentioned above. Erythema and edema were scored, and the case with the total score of 2 or higher was evaluated to be positive with the maximum of the score being 7.

in vivo [2] = conditions: male, Crj:CD IGS, rat, po, 5 mg/kg
S. aureus, 209P = experiment: antibacterial activity (MIC), standard method of Japanese Society of Chemotherapy; conditions: Staphylococcus aureus
[3] = system: S. pneumoniae, J24 (penicillin-intermediate resistant bacteria); experiment: as above
CYP3A4 = CYP3A4 (Homo sapiens, UniProt P08684); experiment: mechanism-based inhibition (MBI) of CYP3A4, hydroxylation at position 1 of midazolam; conditions: inhibition of midazolam 1-hydroxylation; dependence on preincubation time and drug concentration (FIG. 1)
Description: Mechanism-based inhibition (MBI) of CYP3A4 was evaluated by using inhibition of hydroxylation at position 1 of midazolam.

P. vulgaris, 08601 = experiment: antibacterial activity (MIC), standard method of Japanese Society of Chemotherapy; conditions: Proteus vulgaris, 08601, P. vulgaris
P. aeruginosa, 32121 = experiment: as above; conditions: Pseudomonas aeruginosa
[4] = format: in vivo; conditions: 30 minutes observation
Description: The test substance was intracisternally administered to male Slc:ddy mice (6 animals per group), and the convulsion and death were monitored for each cage until 30 minutes after the administration. The test substance was dissolved in 5 μl of 1% aqueous solution of lactic acid, and the dose was 5, 15, or 50 μg per animal.

S. epidermidis, 56500 = experiment: antibacterial activity (MIC), standard method of Japanese Society of Chemotherapy; conditions: Staphylococcus epidermidis, 56500, S. epidermidis
E. coli NIHJ = experiment: as above; conditions: Escherichia coli
[5] = system: Mycobacterium tuberculosis (sensitive bacteria); experiment: anti-Mycobacterium tuberculosis (sensitive bacteria) activity, MIC; format: cell-based
[6] = female, cynomolgus monkey, in vivo
[7] = system: S. aureus, 87037 (LVFX-resistant MRSA); experiment: antibacterial activity (MIC), standard method of Japanese Society of Chemotherapy; conditions: Staphylococcus aureus, MRSA, S. aureus, 87037 (LVFX-resistant MRSA)
in vivo [8] = conditions: female, cynomolgus monkey, po, 5 mg/kg
[9] = system: Mycobacterium tuberculosis (quinolone sensitive); experiment: anti-Mycobacterium tuberculosis (quinolone sensitive) activity, MIC; format: cell-based
P. aeruginosa, 32104 = experiment: antibacterial activity (MIC), standard method of Japanese Society of Chemotherapy; conditions: Pseudomonas aeruginosa
E. coli strain E77156 = experiment: rat simple cystitis model (E. coli); format: in vivo
hERG K+ channel = hERG K+ channel (Homo sapiens, UniProt Q12809); experiment: hERG-K^+ channel blocking effect
[10] = system: penicillin resistant Streptococcus pneumoniae (PRSP) strain 033806; experiment: mouse local lung infection model by PRSP

Chain of hERG K+ channel (Q12809 whole entry): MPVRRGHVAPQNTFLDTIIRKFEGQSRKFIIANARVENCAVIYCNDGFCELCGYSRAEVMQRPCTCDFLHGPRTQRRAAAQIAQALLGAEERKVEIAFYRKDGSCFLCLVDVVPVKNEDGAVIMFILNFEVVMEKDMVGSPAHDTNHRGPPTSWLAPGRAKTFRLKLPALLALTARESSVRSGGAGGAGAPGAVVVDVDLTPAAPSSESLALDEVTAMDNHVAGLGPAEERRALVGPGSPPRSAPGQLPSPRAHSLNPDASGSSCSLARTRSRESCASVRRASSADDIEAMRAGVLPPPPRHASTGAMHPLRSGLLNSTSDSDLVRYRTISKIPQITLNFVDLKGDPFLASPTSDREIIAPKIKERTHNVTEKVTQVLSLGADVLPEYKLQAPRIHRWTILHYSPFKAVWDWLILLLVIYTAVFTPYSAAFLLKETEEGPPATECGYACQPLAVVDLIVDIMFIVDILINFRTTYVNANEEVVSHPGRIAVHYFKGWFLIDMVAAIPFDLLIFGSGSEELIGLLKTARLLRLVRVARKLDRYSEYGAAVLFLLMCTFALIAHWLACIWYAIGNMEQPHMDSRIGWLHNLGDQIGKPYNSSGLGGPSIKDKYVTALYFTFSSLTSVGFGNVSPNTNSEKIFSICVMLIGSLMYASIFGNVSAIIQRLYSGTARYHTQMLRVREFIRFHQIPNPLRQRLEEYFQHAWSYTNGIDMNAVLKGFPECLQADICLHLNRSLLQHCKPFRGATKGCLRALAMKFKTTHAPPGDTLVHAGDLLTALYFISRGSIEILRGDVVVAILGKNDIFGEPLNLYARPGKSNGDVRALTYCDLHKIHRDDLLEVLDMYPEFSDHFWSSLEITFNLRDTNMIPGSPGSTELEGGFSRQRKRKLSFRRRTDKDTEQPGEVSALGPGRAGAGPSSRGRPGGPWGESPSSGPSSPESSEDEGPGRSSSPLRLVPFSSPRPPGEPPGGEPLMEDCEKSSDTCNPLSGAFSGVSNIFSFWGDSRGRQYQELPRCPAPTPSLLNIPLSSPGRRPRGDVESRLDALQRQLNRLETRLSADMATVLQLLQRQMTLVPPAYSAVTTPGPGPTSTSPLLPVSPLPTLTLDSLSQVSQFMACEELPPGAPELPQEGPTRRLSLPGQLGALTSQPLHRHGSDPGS
Chain of CYP3A4 (P08684 whole entry): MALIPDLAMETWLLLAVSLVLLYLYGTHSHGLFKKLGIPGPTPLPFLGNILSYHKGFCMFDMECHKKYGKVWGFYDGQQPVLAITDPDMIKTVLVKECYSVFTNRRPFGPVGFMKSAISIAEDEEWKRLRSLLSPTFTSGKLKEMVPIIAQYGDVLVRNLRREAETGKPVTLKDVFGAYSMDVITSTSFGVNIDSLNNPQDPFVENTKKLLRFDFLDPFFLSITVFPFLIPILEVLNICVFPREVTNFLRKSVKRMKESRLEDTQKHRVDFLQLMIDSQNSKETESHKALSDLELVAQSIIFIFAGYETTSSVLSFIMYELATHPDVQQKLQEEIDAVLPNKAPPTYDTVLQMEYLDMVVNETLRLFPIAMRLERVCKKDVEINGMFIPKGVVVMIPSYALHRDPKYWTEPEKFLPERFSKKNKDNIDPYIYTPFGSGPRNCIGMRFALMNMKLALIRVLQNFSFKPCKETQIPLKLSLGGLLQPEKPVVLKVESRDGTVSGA

COc1c(N2CC(C)(N)C3(CC3)C2)c(F)cc2c(=O)c(C(=O)O)cn([C@@H]3C[C@@H]3F)c12 (stereo partly drawn) [Example 9, 7-(7-Amino-7-methyl-5-azaspiro[2.4]heptan-5-yl)-6-fluoro-1-[(1R,2S)-2-fluorocyclopropyl]-8-methoxy-1,4-dihydro-4-oxoquinoline-3-carboxylic acid]
Average score in GPMT [1]: 0
AUC(0-t) (in vivo [2]): 3080 ng·h/mL
Cmax (in vivo [2]): 1220 ng/mL
MIC (S. aureus, 209P): 0.025 µg/mL (≈ 0.0596 µM)
MIC [3]: 0.1 µg/mL (≈ 0.238 µM)
mechanism-based inhibition (MBI) of CYP3A4 (CYP3A4): weak inhibition
MIC (P. vulgaris, 08601): 0.025 µg/mL (≈ 0.0596 µM)
MIC (P. aeruginosa, 32121): 0.2 µg/mL (≈ 0.477 µM)
convulsant activity (animals affected / 6 animals per group) ([4]; 5 μg/mouse intracisternal): 0/6
convulsant activity (animals affected / 6 animals per group) ([4]; 15 μg/mouse intracisternal): 2/6
convulsant activity (animals affected / 6 animals per group) ([4]; 50 μg/mouse intracisternal): 6/6
MIC (S. epidermidis, 56500): 0.1 µg/mL (≈ 0.238 µM)
MIC (E. coli NIHJ): 0.025 µg/mL (≈ 0.0596 µM)
MIC ([5]; H37RV, strain H37Rv): 0.03 µg/mL (≈ 0.0715 µM)
MIC ([5]; strain Kurono): 0.03 µg/mL (≈ 0.0715 µM)
MIC ([5]; strain Ravenel): 0.03 µg/mL (≈ 0.0715 µM)
MIC ([5]; strain TB-s 2): 0.06 µg/mL (≈ 0.143 µM)
MIC ([5]; strain TB-s 3): 0.06 µg/mL (≈ 0.143 µM)
MIC ([5]; strain TB-s 4): 0.06 µg/mL (≈ 0.143 µM)
MIC ([5]; strain TB-s 5): 0.06 µg/mL (≈ 0.143 µM)
MIC ([5]; strain TB-s 6): 0.06 µg/mL (≈ 0.143 µM)
MIC ([5]; strain TB-s 7): 0.06 µg/mL (≈ 0.143 µM)
MIC ([5]; strain TB-s 8): 0.03 µg/mL (≈ 0.0715 µM)
MIC ([5]; strain TB-s 9): 0.06 µg/mL (≈ 0.143 µM)
MIC ([5]; strain TB-s 10): 0.03 µg/mL (≈ 0.0715 µM)
MIC ([5]; strain TB-s 11): 0.06 µg/mL (≈ 0.143 µM)
MIC ([5]; strain TB-s 12): 0.125 µg/mL (≈ 0.298 µM)
MIC ([5]; strain TB-s 13): 0.06 µg/mL (≈ 0.143 µM)
MIC ([5]; strain TB-s 14): 0.06 µg/mL (≈ 0.143 µM)
MIC ([5]; strain TB-s 15): 0.06 µg/mL (≈ 0.143 µM)
MIC ([5]; strain TB-s 16): 0.06 µg/mL (≈ 0.143 µM)
MIC ([5]; strain TB-s 17): 0.06 µg/mL (≈ 0.143 µM)
MIC ([5]; strain TB-s 18): 0.06 µg/mL (≈ 0.143 µM)
MIC ([5]; strain TB-s 19): 0.06 µg/mL (≈ 0.143 µM)
MIC ([5]; strain TB-s 20): 0.06 µg/mL (≈ 0.143 µM)
MIC ([5]; strain TB-s 21): 0.06 µg/mL (≈ 0.143 µM)
MIC ([5]; strain TB-s 22): 0.03 µg/mL (≈ 0.0715 µM)
blood penetration, times higher than Comparative compound 1 [6]: about 2.5 times
urine excretion rate, times higher than Comparative compound 1 [6]: more than 2 times
Recovery (%) in urine in relation to the amount administered, Recovery (%) including conjugate ([6]; 5 mg/kg): 59.5%
MIC [7]: 0.78 µg/mL (≈ 1.86 µM)
AUC(0-t) (in vivo [8]): 16900 ng·h/mL
Cmax (in vivo [8]): 2180 ng/mL
half-life (in vivo [8]): 288 min
MIC ([9]; strain 1 (QR-3)): 0.125 µg/mL (≈ 0.298 µM)
MIC ([9]; strain 2 (QR-6)): 0.5 µg/mL (≈ 1.19 µM)
MIC ([9]; strain 3 (QR-1)): 0.25 µg/mL (≈ 0.596 µM)
MIC ([9]; strain 4 (QR-9)): 0.25 µg/mL (≈ 0.596 µM)
MIC ([9]; strain MDR 1): 0.125 µg/mL (≈ 0.298 µM)
MIC ([9]; strain MDR 3): 0.125 µg/mL (≈ 0.298 µM)
MIC ([9]; strain MDR 4): 0.25 µg/mL (≈ 0.596 µM)
MIC ([9]; strain MDR 5): 0.5 µg/mL (≈ 1.19 µM)
MIC ([9]; strain MDR 7): 0.125 µg/mL (≈ 0.298 µM)
MIC ([9]; strain MDR 9): 0.125 µg/mL (≈ 0.298 µM)
MIC ([9]; strain MDR 12): 0.125 µg/mL (≈ 0.298 µM)
MIC ([9]; strain S 1): 1 µg/mL (≈ 2.38 µM)
MIC (P. aeruginosa, 32104): 0.39 µg/mL (≈ 0.93 µM)
therapeutic effect compared with Comparative Compound 1 (E. coli strain E77156; oral single dose 5 mg/kg/day): significantly stronger than the Comparative Compound 1
number of bacteria in the bladder (E. coli strain E77156; oral single dose 20 or 80 mg/kg/day, next day of administration (FIG. 4)): significant decrease in the number of bacteria
inhibition at 30 µM (hERG K+ channel): 7.4 ± 4.5%
inhibition at 100 µM (hERG K+ channel): 10.2 ± 5.4%
inhibition at 300 µM (hERG K+ channel): 20.1 ± 7.4%
therapeutic effect (number of bacteria in the lung) compared with comparative compound 1 at the same dose ([10]; CBA/JNCrlj mice, oral at 2 and 8 hours after infection, 25, 50, and 100 mg/kg/day (FIG. 2)): no significant difference
in vivo antibacterial activity for the test bacteria relative to comparative compound 1 ([10]; PRSP strain 033806): about ¼
